Experimental data: US7153883B2, “Carboxylic acids and carboxylic acid isosteres of N-heterocyclic compounds” (GPI NIL Holdings Inc., priority 1998, dated 2006)

What was measured:
Clearance = format: in vitro ADME
[1] = system: retinal ganglion cell axons; experiment: Protection of retinal ganglion cell axons 14 days after optic nerve transection (RT97); format: in vivo, Sprague Dawley rats; settings: ± SEM
Excerpt: Efficacy of representative compounds from different immunophilin ligand series in protecting retinal ganglion cell axons from degeneration following optic nerve transection is set forth in Table VI.

dopaminergic neurons = experiment: MPTP model of Parkinson's Disease in mice (TH immunostaining); format: in vivo, CD1 white mice; settings: Mus musculus, Neuron, po; 10 mg/kg p.o.; MPTP-lesioned mice; read-out: Post-MPTP % TH RECOVERY
Protocol: MPTP lesioning of dopaminergic neurons in mice was used as an animal model of Parkinson's Disease. Four week old male CD1 white mice were dosed i.p. with 30 mg/kg of MPTP for 5 days. […] At 18 days following MPTP treatment, the animals were sacrificed and the striata were dissected and homogenized. Immunostaining was performed on saggital and coronal brain sections using anti-tyrosine hydroxylase Ig to quantitate survival and recovery of dopaminergic neurons. In animals treated with MPTP and vehicle, a substantial loss of functional dopaminergic terminals was observed as compared to non-lesioned animals. In another protocol, test compounds were administered only subsequent to MPTP-induced lesioning. Thus, after animals were treated with MPTP for 5 days, an additional 3 days passed before beginning oral drug treatment on day 8. […] On day 18, the animals were sacrificed and analyzed as described above.
Table V presents the percent recovery of dopaminergic neurons in the first (concurrent dosing) paradigm in animals receiving carboxylic acid or carboxylic acid isostere compounds of the present invention.
Percent striatal innervation density was quantitated in brain sections with an anti-tyrosine hydroxylase immunoglobulin, which is indicative of functional dopaminergic neurons. The striatal innervation density of 23% for animals pretreated with only a vehicle and administered a vehicle orally during treatment, is indicative of normal non-lesioned striatal tissue. Striatal innervation density is reduced to 5% for animals pretreated with MPTP and administered a vehicle orally during treatment, and is indicative of MPTP-induced lesioning.

hair growth = experiment: In vivo hair generation test with C57 Black 6 mice; settings: topical, 1 μmole per milliliter three times per week, evaluated after 14 days
Protocol: Care was taken not to nick or cause abrasion to the underlaying dermal layers. The animals were in anagen growth phase, as indicated by the pinkish color of the skin. Referring now to FIG. 2, four animals per group were treated by topical administration with 20% propylene glycol vehicle (FIG. 2), or neuroimmunophilin FKBP ligands dissolved in the vehicle. The animals were treated with vehicle or neuroimmunophilin ligands every 48 hours (3 applications total over the course of 5 days) and the hair growth was allowed to proceed for 6 weeks. Hair growth was quantitated by the percent of shaved area covered by new hair growth during this time period.
Care was taken not to nick or cause abrasion to the underlying dermal layers. Compounds at a concentration of 1 μmole per milliliter were carefully applied to the shaved area of the mice (5 mice per group) three times per week. Hair growth was evaluated 14 days after initiation of drug treatment. The relative scale for assessing hair growth is as follows: • 0=no growth; • 1=beginning of growth in small tufts; • 2=hair growth covering over <25% of shaved area; • 3=hair growth covering over >25% of shaved area, but less than 50% of shaved area; • 4=hair growth covering over >50% of shaved area, but less than 75% of shaved area; • 5=complete hair growth of shaved area.

Rotamase = Rotamase (Homo sapiens, UniProt P62942); experiment: Rotamase inhibition; format: biochemical; settings: read-out: K1 Rotamase
Rotamase, sequence (P62942 2-108 limits assumed): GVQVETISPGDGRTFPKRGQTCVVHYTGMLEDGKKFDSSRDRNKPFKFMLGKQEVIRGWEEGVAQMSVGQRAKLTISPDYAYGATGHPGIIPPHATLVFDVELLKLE

spatial memory = experiment: Morris watermaze spatial learning and memory in aged rodents; format: in vivo, C57BL/6N-Nia mice; settings: 10 mg/kg daily, retention testing after 3 weeks of dosing; aged impaired mice
Excerpt: The Morris watermaze is widely used for assessing spatial memory formation and retention in experimental animals. The test depends on the animal's ability to utilize spatial visual information in order to locate a submerged escape platform in a water tank. It is important that the tank itself be as devoid of specific visual features as possible—thus, it is always circular in shape, the sides are kept smooth and in uniform dull colors, and the water is rendered opaque with nontoxic watercolour pigment or powdered milk. This is to ensure that the animal navigates only by the use of more distant visual cues, or by the use of intra-maze cues specifically provided by the experimenter. The animals' path, speed, and swim time are tracked with a ceiling camera for later computerized analysis. Over the course of several successive trials, spatial learning can therefore be defined as a drop of distance swum, or time elapsed, from placement in the tank until escape onto the invisible platform. The procedure involved using three-month old (young) and 18–19 month old male C57BL/6N-Nia (aged) mice which habituated to the well known and conventional Morris watermaze during a 4 trials/day, 3–4 day visible platform training phase. […] Swim Distances (cm) were analyzed in a 7×5 ANOVA including Groups and Blocks (1–5) as factors in the analysis, treating Blocks as a repeated measure.

retinal ganglion cells = experiment: Retinal ischemia: ganglion cell, optic nerve axon and myelin degeneration; format: in vivo, rats
Excerpt: Retinal ganglion cells were retrogradely labeled in adult rats by bilateral injection of fluorogold in their lateral geniculate nuclei. Labeled ganglion cells in the normal rat retina appear as white profiles against the dark background (FIG. 4A). Complete retinal ischemia was produced by infusing normal saline solution into the retinal vitreous cavity of each eye until the intraocular pressure exceeded arterial blood pressure. 28 days after the ischemic episode extensive degeneration of retinal ganglion cell was evidenced by massive reduction in the density of fluorogold labeled cells (FIG. 4B).

[2] = system: retinal ganglion cells and optic nerve axons; experiment: Optic nerve transection: retinal ganglion cell survival, optic nerve axons and myelin 90 days after transection; format: in vivo, Sprague Dawley rats
Excerpt: Transection of the mammalian optic nerve results in a brief period of abortive regeneration, but the majority of axotomized neurons die and the axons from many persisting ganglion cells die back beyond the optic nerve head. […]
All eyes and optic nerves stumps were removed.

retina = experiment: Streptozotocin induced diabetes: retinal neovascularization and neuron loss; format: in vivo; settings: 28 day treatment beginning 8 weeks after onset of diabetes
[3] = 28 days after 1 hour retinal ischemic episode
[4] = 10 mg/kg/day s.c. for 28 days, 90 days after transection
[5] = treatment first 14 days, 90 days after transection
[6] = treatment first 28 days, 90 days after transection

O=C(SCCCc1ccccc1)[C@@H]1CCCN1S(=O)(=O)Cc1ccccc1 [C]
Clearance (Clearance): 31.1 µL/min | RT97 + RGC axon density 14 days after ON transection (% ON axons rescued) [1]: 60.4%±3.1%SEM

CCC(C)(C)C(=O)C(=O)N1CCC[C@H]1CO [Compound 26, (2S)-1-(1,2-dioxo-3,3-dimethylpentyl)-2-hydroxymethyl pyrrolidine]
percent TH recovery after MPTP at 10 mg/kg (dopaminergic neurons): 23.2%

CCC(C)(C)C(=O)C(=O)N1CCC[C@H]1CC#N [Compound 28, 2-[1-(3,3-Dimethyl-2-oxopentanoyl)pyrrolidin-2-yl]ethanenitrile]
melting point: 91 to 93 °C | percent TH recovery after MPTP at 10 mg/kg (dopaminergic neurons): 15.7%

CCC(C)(C)C(=O)C(=O)N1CCC[C@H]1C#N [Compound 29, (2S)-1-(1,2-dioxo-3,3-dimethylpentyl)-2-pyrrolidinecarbonitrile]
percent TH recovery after MPTP at 10 mg/kg (dopaminergic neurons): 34.1%

CCC(C)(C)C(=O)C(=O)N1CCC[C@H]1c1nnn[nH]1 [Compound 30, (2S)-1-(1,2-dioxo-3,3-dimethylpentyl)-2-pyrrolidinetetrazole]
percent TH recovery after MPTP at 10 mg/kg (dopaminergic neurons): 19.6%

CCC(C)(C)C(=O)C(=O)N1CCCC[C@H]1C(N)=O [Compound 35, (2S)-1-(1,2-dioxo-3,3-dimethylpentyl)-2-aminocarbonyl piperidine]
hair growth on shaved area (hair growth): dramatic hair growth | percent TH recovery after MPTP at 10 mg/kg (dopaminergic neurons): 46.5%

CCC(C)(C)C(=O)C(=O)N1CCC[C@H]1C(=O)O [Compound 137, (2S)-1-(1,2-dioxo-3,3-dimethylpentyl)-2-pyrrolidinecarboxylic acid]
hair growth on shaved area (hair growth): dramatic hair growth | percent TH recovery after MPTP at 10 mg/kg (dopaminergic neurons): 26.7%

CCC(C)(C)C(=O)C(=O)N1CCC[C@H]1C(=O)NNC(=O)c1cccs1 [Compound 140, [1-(3,3-Dimethyl-2-oxopentanoyl)pyrrolidin-2-yl]-N-(2-thienylcarbonylamino)-formamide]
melting point: 72 to 74 °C | percent TH recovery after MPTP at 10 mg/kg (dopaminergic neurons): 10.4%

CCC(C)(C)C(=O)C(=O)N1CCC[C@H]1COc1ccc([N+](=O)[O-])cc1 [Compound 141, 3,3-Dimethyl-1-{2-[(4-nitrophenoxy)methyl]pyrrolidinyl}pentane-1,2-dione]
percent TH recovery after MPTP at 10 mg/kg (dopaminergic neurons): 26.3%

CCC(C)(C)C(=O)C(=O)N1CCC[C@H]1C(=O)NNS(=O)(=O)c1ccc(C)cc1 [Compound 146, [1-(3,3-Dimethyl-2-oxopentanoyl)pyrrolidin-2-yl]-N-{[(4-methylphenyl)sulfonyl]-amino}formamide]
melting point: 59 to 61 °C | percent TH recovery after MPTP at 10 mg/kg (dopaminergic neurons): 40.6%

CCC(C)(C)C(=O)C(=O)N1CCC[C@H]1C(=O)NNS(=O)(=O)c1ccc(F)cc1 [Compound 147]
melting point: 57 to 60 °C

CCC(C)(C)C(=O)C(=O)N1CCC[C@H]1c1nnc(S)[nH]1 [Compound 148, (2S)-3,3-Dimethyl-1-[2-(5-sulfanyl(4H-1,2,4-triazol-3-yl))pyrrolidinyl]-pentane-1,2-dione]
percent TH recovery after MPTP at 10 mg/kg (dopaminergic neurons): 21.4%

CCC(C)(C)C(=O)C(=O)N1CCCCC1C(=O)OC(CCc1ccccc1)CCc1ccccc1 (centres unmarked) [E]
Clearance (Clearance): 41.8 µL/min

CCC(C)(C)C(=O)C(=O)N1CCSC1C(=O)OCCCc1cccnc1 (centres unmarked) [F]
Ki (Rotamase): 272 nM

CCC(C)(C)C(=O)C(=O)N1CCC[C@H]1C(=O)OCCCc1cccnc1 [GPI 1046]
Clearance (Clearance): 63.8 µL/min | spatial memory performance (retention testing, swim distance) (spatial memory): significantly enhanced spatial memory performance | protection of vulnerable ganglion cell population (retinal ganglion cells; 10 mg/kg s.c. 1 hour prior to ischemia and 10 mg/kg/day next four days, 28 days after ischemia): noticeable protection of a large proportion | density of degenerating myelin figures (retinal ganglion cells; [3]): dramatically decreased | optic nerve axon degeneration (retinal ganglion cells; [3]): protected the majority of optic nerve axons from degeneration | axons of protected neurons in the proximal stump [2, 4]: preserved the axons of virtually all protected neurons | ganglion cell population spared [2, 4]: 25% | density of large, medium and small caliber optic nerve axons ([2]; 28 day treatment): significant increase | density of myelin, distal stump ([2]; treatment first 14 days): slightly increase the density of myelin | shrinkage of the distal stump ([2]; treatment first 14 days): did not protect against shrinkage of the distal stump | protection of optic nerve axons, proximal stump [2, 5]: 5.3% | recovery in myelin density, proximal stump [2, 5]: 1.6% | cross sectional shrinkage of the distal stump ([2]; treatment first 28 days): prevented cross sectional shrinkage | protection of the vulnerable ganglion cell population ([2]; treatment first 28 days after transection, 90 days after transection): 12.6% | myelin levels in distal stump, % of normal levels [2, 6]: 99% | recovery of myelin density, proximal stump [2, 6]: 70% | density of retinal ganglion cells that survived ([2]; treatment for 14 days, 90 days after transection): small but not significant increase | spared retinal ganglion cells with protected optic nerve axons ([2]; treatment for 28 days, 90 days after transection): 81.4% | RT97 + RGC axon density 14 days after ON transection (% ON axons rescued) [1]: 60.5%±3.9%SEM | neovascularization in the PR, ONL, OPL and INL (retina): reduced neovascularization | neuronal loss in the ONL (retina): did not appear to protect against neuronal loss in the ONL | loss of neurons in the INL and GCL (retina; vs streptozotocin/vehicle): appeared to decrease the loss of neurons

O=C(OCCCc1cccnc1)[C@@H]1CCCN1C(=S)NC1CCCCC1 [I]
Clearance (Clearance): 8.0 µL/min

CCC(C)(C)C(=O)C(=O)N1CCC[C@H]1C(=O)CCCCc1cccnc1 [J]
Clearance (Clearance): 1.5 µL/min

CCC(C)(C)C(=O)C(=O)N1CCCC[C@H]1C(=O)SCCC(c1ccccc1)c1ccccc1 [K]
Clearance (Clearance): 4.5 µL/min

CCC(C)(C)C(=O)C(=O)N1CCC[C@H]1C(=O)O [L]
Clearance (Clearance): 5.2 µL/min | RT97 + RGC axon density 14 days after ON transection (% ON axons rescued) [1]: 7.8%±3.0%SEM

CCC(C)(C)C(=O)C(=O)N1CCC[C@H]1C(=O)SCCC(c1ccccc1)c1ccccc1 [M]
Clearance (Clearance): 12.5 µL/min | RT97 + RGC axon density 14 days after ON transection (% ON axons rescued) [1]: −6.3%±3.9%SEM

CN(C)C(=O)N1CCC[C@H]1C(=O)SCCCc1ccccc1 [N]
Clearance (Clearance): 21.9 µL/min
